Measured values published in article PMC6933783 (ACS Omega, 2019).

Experiments:
MAO-B = biological target: T1, MAO-B (Homo sapiens, UniProt P27338); experiment: Reversibility of MAO-B inhibition; format: biochemical; conditions: dilution assay, 30 min preincubation, Figure S3
T1 sequence (P27338 1-520): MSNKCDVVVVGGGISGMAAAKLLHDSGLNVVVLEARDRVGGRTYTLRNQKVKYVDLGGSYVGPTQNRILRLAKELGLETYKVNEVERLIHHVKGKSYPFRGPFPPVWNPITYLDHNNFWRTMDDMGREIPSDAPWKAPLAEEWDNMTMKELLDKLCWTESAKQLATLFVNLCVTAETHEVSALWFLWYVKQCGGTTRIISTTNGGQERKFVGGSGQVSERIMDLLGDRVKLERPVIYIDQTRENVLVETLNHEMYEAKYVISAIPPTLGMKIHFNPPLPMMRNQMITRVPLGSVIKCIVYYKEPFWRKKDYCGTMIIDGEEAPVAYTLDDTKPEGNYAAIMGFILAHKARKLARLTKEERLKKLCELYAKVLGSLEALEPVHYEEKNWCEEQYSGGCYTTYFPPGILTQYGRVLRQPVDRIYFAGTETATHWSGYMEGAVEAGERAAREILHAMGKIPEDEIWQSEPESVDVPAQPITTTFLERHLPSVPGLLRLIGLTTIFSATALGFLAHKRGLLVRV

[1] = biological target: human acetylcholinesterase (AChE) (Homo sapiens, UniProt P22303); experiment: Cholinesterase assay; format: biochemical; conditions: for αKi ± SE, AChE: uncompetitive contribution, Lineweaver-Burk plots
human acetylcholinesterase (AChE), sequence (P22303 32-617 isoform P22303-2 limits assumed): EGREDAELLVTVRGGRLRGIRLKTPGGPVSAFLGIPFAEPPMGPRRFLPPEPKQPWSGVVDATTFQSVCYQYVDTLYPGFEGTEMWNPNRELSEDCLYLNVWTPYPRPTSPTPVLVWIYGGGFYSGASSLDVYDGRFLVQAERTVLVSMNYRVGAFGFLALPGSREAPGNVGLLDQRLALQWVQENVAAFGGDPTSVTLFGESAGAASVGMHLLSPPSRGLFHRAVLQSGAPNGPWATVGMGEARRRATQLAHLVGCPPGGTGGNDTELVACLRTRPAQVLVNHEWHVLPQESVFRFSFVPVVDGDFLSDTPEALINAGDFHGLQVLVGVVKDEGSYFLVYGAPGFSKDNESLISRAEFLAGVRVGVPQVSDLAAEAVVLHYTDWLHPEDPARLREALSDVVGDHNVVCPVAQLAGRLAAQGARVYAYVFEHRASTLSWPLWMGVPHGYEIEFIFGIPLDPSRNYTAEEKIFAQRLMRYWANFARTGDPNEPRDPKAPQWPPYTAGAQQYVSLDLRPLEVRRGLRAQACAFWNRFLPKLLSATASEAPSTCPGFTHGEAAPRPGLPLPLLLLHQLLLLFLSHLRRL

SMILES | reversibility of MAO-B inhibition (MAO-B) | Ki [1] [µM] | αKi ± SE, AChE [1] [µM]
O=c1ccoc2ccc(OCCCCN3CCCCC3)cc12 [Compound 7, 6-(4-(piperidin-1-yl)butoxy)-4H-chromen-4-one] | reversibility of MAO-B inhibition was exemplarily demonstrated |  | 
CN1CCN(CCCCOc2ccc3occc(=O)c3c2)CC1 [Compound 15, 6-(4-(4-Methylpiperazin-1-yl)butoxy)-4H-chromen-4-one] |  | 2.06 ± 0.56 | 5.36 ± 0.70
C[C@@H]1CCCN1CCCCOc1ccc2occc(=O)c2c1 [Compound 27] |  | 9.23 ± 5.01 | 19.0 ± 4.1
